{"source": "patent US9943554B2", "about": "“Compositions and methods relating to solenopsins and their uses in treating neurological disorders and enhancing physical performance” (priority 2006, dated 2018)", "key": {"[1]": {"molecular_target": "T1, muscarinic receptors (M2) (Homo sapiens, UniProt P08172)", "T1 construct": "CEREP", "T1 sequence (P08172 1-466)": "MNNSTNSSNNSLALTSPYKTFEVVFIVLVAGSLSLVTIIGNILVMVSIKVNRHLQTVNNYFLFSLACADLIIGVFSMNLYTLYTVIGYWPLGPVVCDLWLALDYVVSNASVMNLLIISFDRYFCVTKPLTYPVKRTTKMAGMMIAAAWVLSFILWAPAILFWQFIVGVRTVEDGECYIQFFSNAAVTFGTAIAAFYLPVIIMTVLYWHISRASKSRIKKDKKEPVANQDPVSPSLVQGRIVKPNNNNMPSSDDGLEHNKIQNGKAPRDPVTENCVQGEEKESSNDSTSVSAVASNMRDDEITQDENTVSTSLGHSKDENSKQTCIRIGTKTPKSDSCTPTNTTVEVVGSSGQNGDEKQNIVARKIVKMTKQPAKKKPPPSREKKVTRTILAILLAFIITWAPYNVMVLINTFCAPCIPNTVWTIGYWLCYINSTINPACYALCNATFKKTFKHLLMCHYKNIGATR", "assay": "CEREP screen: muscarinic receptor M2", "type": "binding", "set-up": "dose or concentration left out as unconfirmed", "experimental": "(§1) Recent CEREP screen indicated for SPI-001 ([…]) that it inhibited muscarinic receptors (M1, M2 and M3), Na+ channels and monoamine (NE, DA, and 5-HT) transporters with high affinity (˜90%)."}, "MSK1": {"molecular_target": "MSK1 (Homo sapiens, UniProt O75582)", "sequence (O75582 whole entry, species assumed)": "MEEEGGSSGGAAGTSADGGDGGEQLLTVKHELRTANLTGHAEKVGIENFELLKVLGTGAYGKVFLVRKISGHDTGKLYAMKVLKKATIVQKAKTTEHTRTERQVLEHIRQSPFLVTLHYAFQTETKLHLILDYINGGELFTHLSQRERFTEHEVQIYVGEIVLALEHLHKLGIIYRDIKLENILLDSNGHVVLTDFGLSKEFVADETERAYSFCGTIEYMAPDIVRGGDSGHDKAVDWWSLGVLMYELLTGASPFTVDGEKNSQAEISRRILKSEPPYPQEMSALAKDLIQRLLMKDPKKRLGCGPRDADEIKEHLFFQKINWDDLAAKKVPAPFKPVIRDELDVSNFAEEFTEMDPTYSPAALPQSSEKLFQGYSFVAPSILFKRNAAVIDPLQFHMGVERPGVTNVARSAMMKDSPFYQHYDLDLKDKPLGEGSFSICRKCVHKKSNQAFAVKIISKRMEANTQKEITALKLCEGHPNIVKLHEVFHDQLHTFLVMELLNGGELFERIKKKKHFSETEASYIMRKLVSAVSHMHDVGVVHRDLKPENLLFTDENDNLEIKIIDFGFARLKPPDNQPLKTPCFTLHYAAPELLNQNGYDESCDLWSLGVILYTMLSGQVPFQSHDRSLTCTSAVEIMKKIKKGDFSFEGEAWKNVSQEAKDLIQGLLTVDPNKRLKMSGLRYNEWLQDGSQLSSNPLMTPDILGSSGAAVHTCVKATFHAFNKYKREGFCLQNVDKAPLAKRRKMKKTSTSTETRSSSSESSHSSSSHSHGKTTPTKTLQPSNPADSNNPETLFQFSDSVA", "assay": "Initial studies: MSK1", "type": "biochemical"}, "Aβ peptide": {"test_system": "Aβ peptide", "assay": "Aβ peptide levels in the brain after repetitive administration for 3 months", "type": "in vivo", "conditions": "APP transgenic mice; 10 mg/kg orally daily for 3 months; compared to control animals", "description": "(§2) The APP mice (male) used in these experiments were designed by microinjection of the human APP gene (with the Swedish and London mutations) into mouse eggs under the control of the platelet-derived growth factor B (PDGF-B) chain gene promoter. The mice were generated on a C57BL/6 background. Animals were housed in the Medical University of South Carolina Animal Facility under a 12:12 light:dark cycle. Animals were housed in standard non-sterile rodent microisolator cages, with filtered cage tops and housed 4 to a cage. Animals were fed ad libitum and maintained by brother sister mating. Transgenic animals were identified by PCR analysis. The mice generated from this construct develop amyloid deposits starting at 3 months of age. Animals were aged for 3 months and then maintained for 90 days and sacrificed for amyloid quantification.\nSPI-001 was administered to APP transgenic mice at 10 mg/kg for 3 months to determine the effect upon Aβ peptide and amyloid load. Animals were administered SPI-001 orally in 25% PEG daily and examined for abnormal pathology. […] Animals were analyzed for behavioral changes associated with drug treatment (FIG. 7). […] FIG. 8 illustrates the plaque load in the brains of control and SPI-001 treated animals."}, "Solubility of SPI-001": {"assay": "Solubility of SPI-001", "type": "physicochemical", "conditions": "for solubility: organic solvent or mixture", "experimental": "Based on chemical synthesis of SPI-001 and mass spec analysis, the compound has a molecular weight of <500. It is not a protein or peptide, but is a small molecule. SPI-001 is soluble in dimethyl sulfoxide (DMSO) and ethanol to 100 mg/ml. […] SPI-001 can be resuspended in 25% polyethylene glycol (PEG) 400 for oral delivery."}, "Aβ1-40 peptide": {"test_system": "Aβ1-40 peptide", "assay": "Brain and plasma Aβ1-40 peptide levels in APP transgenic mice after single oral administration", "type": "in vivo", "conditions": "single 10 mg/kg oral, compared with Aβ1-42", "description": "as §2\n(§3) FIG. 2 illustrates the effect of SPI-001 on brain Aβ1-42 peptide levels when administered at 10 mg/kg orally to the APP transgenic mice. Animals were dosed once with SPI-001 and then examined at 0, 4, 24 hours and 7 days for A[…] peptide levels (Biosource International). […] The plasma levels were opposite to the brain levels.\n(§4) Animals were dosed once with SPI-001 and then examined at 0, 4, 24, 48 hours and 7 days for A[…] peptide levels. […] The plasma levels were opposite to the brain levels."}, "APP transgenic mice": {"test_system": "APP transgenic mice", "assay": "Morris water maze test in APP mice treated for 90 days", "type": "in vivo", "conditions": "10 mg/kg orally in 25% PEG daily for 3 months (90 days)", "experimental": "Morris water-maze testing. All mice were tested once in the Morris water maze test at the end of the experiment. Mice were trained in a 1.2 m open field water maze. The pool was filled to a depth of 30 cm with water and maintained at 25° C. The escape platform (10 cm square) was placed 1 cm below the surface of the water. During the trials, the platform was removed from the pool. The cued test was carried out in the pool surrounded with white curtains to hide any extra-maze cues. All animals underwent non-spatial pretraining (NSP) for three consecutive days. These trials were to prepare the animals for the final behavioral test to determine the retention of memory to find the platform. These trials were not recorded (for training purposes only). For the training and learning studies, the curtains were removed to add extra-maze cues (this allows for the identification of animals with swimming impairments). On day 1, the mice were placed on the hidden platform for 20 seconds (trial 1), for trials 2-3 animals were released in the water at a distance of 10 cm from the cued-platform or hidden platform (trial 4) and allowed to swim to the platform. […]\nSPI-001 was administered to APP transgenic mice at 10 mg/kg for 3 months to determine the effect upon Aβ peptide and amyloid load. […] Animals were analyzed for behavioral changes associated with drug treatment (FIG. 7). […]"}, "[2]": {"molecular_target": "T2, muscarinic receptors (M3) (Homo sapiens, UniProt P20309)", "T2 construct": "CEREP", "T2 sequence (P20309 whole entry)": "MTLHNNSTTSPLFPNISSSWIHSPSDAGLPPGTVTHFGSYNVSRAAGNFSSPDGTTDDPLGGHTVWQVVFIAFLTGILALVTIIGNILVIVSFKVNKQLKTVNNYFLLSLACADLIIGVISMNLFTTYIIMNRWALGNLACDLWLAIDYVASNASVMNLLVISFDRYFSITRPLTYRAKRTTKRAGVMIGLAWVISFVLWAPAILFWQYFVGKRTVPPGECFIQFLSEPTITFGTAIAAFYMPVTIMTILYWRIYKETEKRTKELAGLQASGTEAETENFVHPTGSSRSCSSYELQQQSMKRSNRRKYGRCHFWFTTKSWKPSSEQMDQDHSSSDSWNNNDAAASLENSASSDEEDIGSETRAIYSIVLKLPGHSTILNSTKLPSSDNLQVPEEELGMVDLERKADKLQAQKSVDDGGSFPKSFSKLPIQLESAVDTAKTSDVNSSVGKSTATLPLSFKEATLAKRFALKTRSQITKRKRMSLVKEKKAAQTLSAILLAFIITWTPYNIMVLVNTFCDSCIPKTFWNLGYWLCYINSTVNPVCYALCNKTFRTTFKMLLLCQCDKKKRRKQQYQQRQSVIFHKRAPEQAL", "assay": "CEREP screen: muscarinic receptor M3", "type": "binding", "set-up": "dose or concentration left out as unconfirmed", "experimental": "as §1"}, "Aβ1-42 peptide": {"test_system": "Aβ1-42 peptide", "assay": "Brain and plasma Aβ1-42 peptide levels in APP transgenic mice after single oral administration", "type": "in vivo", "description": "as §2, §3, §4"}, "CamK1δ": {"molecular_target": "CamK1δ (Homo sapiens, UniProt Q8IU85)", "sequence (Q8IU85 whole entry)": "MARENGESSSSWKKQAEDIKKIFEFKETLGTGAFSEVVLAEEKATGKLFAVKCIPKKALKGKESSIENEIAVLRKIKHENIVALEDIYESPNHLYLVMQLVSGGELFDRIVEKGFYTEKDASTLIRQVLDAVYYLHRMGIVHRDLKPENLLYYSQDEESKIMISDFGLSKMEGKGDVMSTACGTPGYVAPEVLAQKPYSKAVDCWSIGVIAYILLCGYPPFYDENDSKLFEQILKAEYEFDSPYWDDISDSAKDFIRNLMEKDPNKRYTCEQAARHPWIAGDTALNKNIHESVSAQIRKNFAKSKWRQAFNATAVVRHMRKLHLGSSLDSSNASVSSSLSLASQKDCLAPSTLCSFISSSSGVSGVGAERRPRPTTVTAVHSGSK", "assay": "Initial studies: CamK1δ", "type": "biochemical"}, "[3]": {"molecular_target": "T3, monoamine (NE) transporters (Homo sapiens, UniProt P23975)", "T3 construct": "CEREP", "T3 sequence (P23975 whole entry)": "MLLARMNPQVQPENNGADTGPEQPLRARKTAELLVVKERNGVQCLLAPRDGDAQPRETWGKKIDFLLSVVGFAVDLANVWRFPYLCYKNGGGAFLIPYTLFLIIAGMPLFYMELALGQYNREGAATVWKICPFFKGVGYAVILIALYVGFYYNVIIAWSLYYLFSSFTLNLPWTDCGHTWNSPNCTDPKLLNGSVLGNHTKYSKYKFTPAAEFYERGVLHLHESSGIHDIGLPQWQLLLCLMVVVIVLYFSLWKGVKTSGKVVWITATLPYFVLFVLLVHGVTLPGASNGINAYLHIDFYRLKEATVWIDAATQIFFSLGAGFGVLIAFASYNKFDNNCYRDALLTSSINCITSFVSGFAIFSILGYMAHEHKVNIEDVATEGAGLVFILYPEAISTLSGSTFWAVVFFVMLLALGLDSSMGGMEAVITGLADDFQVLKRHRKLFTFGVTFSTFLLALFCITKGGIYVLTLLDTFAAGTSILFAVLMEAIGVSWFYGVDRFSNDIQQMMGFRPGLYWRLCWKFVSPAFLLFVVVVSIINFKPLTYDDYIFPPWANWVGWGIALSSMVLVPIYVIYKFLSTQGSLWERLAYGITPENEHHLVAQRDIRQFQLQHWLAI", "assay": "CEREP screen: NE transporter", "type": "binding", "set-up": "dose or concentration left out as unconfirmed", "experimental": "as §1"}}, "note": "Read-outs that look alike come from different tables or passages of the source."}
{"smiles": "CCCCCCCCCCC[C@H]1CCC[C@H](C)N1", "note": "(relative stereo) [SPI-001, trans-2-methyl 6-n-undecylpiperidine]", "values": [{"measurement": "inhibition", "setting": "[1]", "value": "~90", "unit": "%"}, {"measurement": "effect on MSK1", "setting": "MSK1", "value": "inhibits"}, {"measurement": "Aβ peptide levels", "setting": "Aβ peptide", "value": "significantly reduced"}, {"measurement": "solubility", "setting": "Solubility of SPI-001; dimethyl sulfoxide (DMSO), read-out: solubility in dimethyl sulfoxide (DMSO)", "value": 100, "unit": "mg/mL"}, {"measurement": "solubility", "setting": "Solubility of SPI-001; ethanol, read-out: solubility in ethanol", "value": 100, "unit": "mg/mL"}, {"measurement": "solubility in water", "setting": "Solubility of SPI-001; water", "value": "slightly soluble"}, {"measurement": "brain Aβ1-40 peptide levels", "setting": "Aβ1-40 peptide", "value": "same levels of decrease in the brain"}, {"measurement": "plasma Aβ1-40 peptide levels", "setting": "Aβ1-40 peptide", "value": "increase in the plasma"}, {"measurement": "behavior in the Morris Water Maze", "setting": "APP transgenic mice", "value": "improvement in behavior"}, {"measurement": "inhibition", "setting": "[2]", "value": "~90", "unit": "%"}, {"measurement": "brain Aβ1-42 peptide levels", "setting": "Aβ1-42 peptide; single 10 mg/kg oral in 25% PEG 400, 4 hr", "value": "decreased"}, {"measurement": "plasma Aβ1-42 peptide levels", "setting": "Aβ1-42 peptide; single 10 mg/kg oral, 4 hr", "value": "increased"}, {"measurement": "brain Aβ1-42 peptide levels", "setting": "Aβ1-42 peptide; single 10 mg/kg oral, 24 hours", "value": "continued to decrease"}, {"measurement": "plasma Aβ1-42 peptide levels", "setting": "Aβ1-42 peptide; single 10 mg/kg oral, 24 hours", "value": "continued to increase"}, {"measurement": "brain Aβ1-42 peptide levels", "setting": "Aβ1-42 peptide; single 10 mg/kg oral, 48 hours", "value": "returned to control levels"}, {"measurement": "plasma Aβ1-42 peptide levels", "setting": "Aβ1-42 peptide; single 10 mg/kg oral, 48 hours", "value": "returned to control levels"}, {"measurement": "brain Aβ1-42 peptide levels", "setting": "Aβ1-42 peptide; single 10 mg/kg oral, 7 days", "value": "returned to control levels"}, {"measurement": "plasma Aβ1-42 peptide levels", "setting": "Aβ1-42 peptide; single 10 mg/kg oral, 7 days", "value": "returned to control levels"}, {"measurement": "effect on CamK1δ", "setting": "CamK1δ", "value": "inhibits"}, {"measurement": "inhibition", "setting": "[3]", "value": "~90", "unit": "%"}]}
